Measurements published in publication PMC12136037, “Type II kinase inhibitors that target Parkinson’s disease–associated LRRK2” (Science Advances, 2025).
Values joined by “and” are separate entries in the source; they are usually repeats but may differ in a detail not shown here. Identical values can stand only once. “Also recorded” adds a separate entry of the source.

Experiments:
[1] = target: LRRK1 (Homo sapiens, UniProt Q38SD2); experiment: Western blot of Rab7 phosphorylation (pS72) in 293T cells transfected with LRRK1 and GFP-Rab7; type: cell-based; details: for pRab7/Rab7/LRRK1 normalized to DMSO, Mean / pRab7/Rab7/LRRK1 normalized to DMSO: 4 h; for pRab7/Rab7/LRRK1 normalized to DMSO, Mean: 3 replicates; for pRab7/Rab7/LRRK1 normalized to DMSO: individual Western blots; for inhibition of LRRK1 kinase activity in cells: 293T cells, Rab7 phosphorylation
Protocol: For all in cell kinase assays, after 48 hours, transfected cells were treated with either DMSO (control) or the indicated inhibitors for 4 hours at 37°C and 5% CO2. Following treatments, cells were washed three times with ice cold PBS. Cells were then lysed in ice cold radioimmunoprecipitation assay (RIPA) lysis buffer [50 mM tris (pH 8.0), 150 mM NaCl, 1% Triton X-100, 0.1% SDS, 0.5% sodium deoxycholate, and 1 mM DTT] in the presence of complete mini EASYpack protease inhibitor cocktail and the PhosSTOP EASYpack phosphatase inhibitor cocktail (Roche). Resuspended and lysed cells were clarified by centrifugation at 13,000g for 15 min at 4°C. NuPAGE LDS Sample Buffer (1×) and NuPAGE Sample Reducing Agent (1×; Invitrogen) were added to the clarified supernatants, and the samples were boiled at 95°C for 5 min and spun down at 13,000g for 10 min. For Western blotting, 15 μl of sample was loaded into a NuPAGE 4 to 12% gradient bis-tris gel (Invitrogen) and run at 120 V for 75 min before transfer to polyvinylidene difluoride transfer membrane (0.45-μm pore size, Millipore) for 240 min at 80 V at 4°C. The membrane was blocked in 5% milk in 1× Tris-buffered saline (TBS) [20 mM tris (pH 8.0) and 150 mM NaCl] for 1 hour shaking at room temperature. Primary antibodies [monoclonal rabbit anti-LRRK2 (Abcam, ab133474; RRID: AB_2713963), polyclonal rabbit anti-LRRK1 (Abcam, ab228666), monoclonal rabbit anti-LRRK2 phospho-S935 (Abcam, ab133450; RRID: AB_2732035), monoclonal rabbit anti-Rab8a phospho-T72 (Abcam, ab230260; RRID: AB_2814988), monoclonal rabbit anti-Rab7 phospho-S72 (Abcam, ab302494; RRID: AB_2933985), monoclonal rabbit anti–glyceraldehyde-3-phosphate dehydrogenase (GAPDH; Cell Signalling Technology, 2118; RRID: AB_561053), and monoclonal mouse anti-GFP (Santa Cruz Biotechnology, sc-9996; RRID: AB_627695)] were diluted in 5% milk in TBS and incubated with membrane for 16 hours at 4°C. Following incubation, membranes were washed three times with 1× TBS-T [20 mM tris (pH 8.0), 150 mM NaCl, and 0.1% Tween 20] before incubation with IRDye 680RD goat anti-rabbit IgG (LI-COR, 926-68071; RRID: AB_10956166) and IRDye 800CW goat anti-mouse IgG (LI-COR, 926-32210; RRID: AB_621842) secondary antibodies in 5% milk in 1× TBS for 1 hour at room temperature. Membranes were then washed three times in 1× TBS-T before imaging on Li-COR Odyssey CLx controlled by Imaging Studio software (www.licorbio.com/image-studio, RRID:SCR_015795). Image processing and quantification were performed in ImageJ version 2.14.0 (National Institutes of Health; https://imagej.net/, RRID:SCR_003070). The signal intensity of each band was assessed using the Analyze>Gels tool. The band intensity for phosphorylated LRRK2 was measured and compared to total LRRK2 levels (run under identical conditions on a separate gel). Band intensity for phosphorylated Rab7 or Rab8a was measured and compared against total GFP-Rab7 or GFP-Rab8a (using anti-GFP antibody) and LRRK1/LRRK2 levels as appropriate. Comparative statistical analysis of phosphorylation levels was analyzed using a one-way analysis of variance (ANOVA) and corrected using Tukey’s multiple comparisons test in GraphPad Prism 10 (www.graphpad.com/, RRID:SCR_002798). (For current step-by-step protocol for LRRK transfection and Western blotting, see dx.doi.org/10.17504/protocols.io.kxygx9bozg8j/v1.)

[2] = target: T1, 350 wild-type kinases (Homo sapiens, UniProt Q8IWQ3); experiment: 33PanQinase kinome-wide selectivity profile (Reaction Biology); type: biochemical; details: kinase BRSK2, ATP 1 µM, singlicate
T1 construct: purchased Reaction Biology (assay service)
Protocol: (§1) Compound RN341 was tested at two concentrations of 1 and 10 μM against a panel of 350 wild-type kinases in the ^33PanQinase assay. The assay was performed by Reaction Biology (www.reactionbiology.com/services/kinase-assays/kinase-panel-screening/).

[3] = target: T2, 350 wild-type kinases (Homo sapiens, UniProt P19784); experiment: as above; type: biochemical; details: kinase CK2alpha2, ATP 0,1 µM, singlicate
T2 construct: purchased Reaction Biology (assay service)
Protocol: as §1

[4] = target: T3, 350 wild-type kinases (Homo sapiens, UniProt O60285); experiment: as above; type: biochemical; details: kinase ARK5, ATP 3 µM, singlicate
T3 construct: purchased Reaction Biology (assay service)
Protocol: as §1

[5] = target: T4, 350 wild-type kinases (Homo sapiens, UniProt Q00534); experiment: as above; type: biochemical; details: singlicate; for Residual activity (% of control), CDK6/CycD1: kinase CDK6/CycD1, ATP 3 µM; for Residual activity (% of control), CDK6/CycD2: kinase CDK6/CycD2, ATP 10 µM; for Residual activity (% of control), CDK6/CycD3: kinase CDK6/CycD3, ATP 30 µM
T4 construct: purchased Reaction Biology (assay service)
Protocol: as §1

[6] = target: T5, 350 wild-type kinases (Homo sapiens, UniProt P07333); experiment: as above; type: biochemical; details: kinase CSF1R, ATP 0,3 µM, singlicate
T5 construct: purchased Reaction Biology (assay service)
Protocol: as §1

[7] = target: T6, 350 wild-type kinases (Homo sapiens, UniProt P11802); experiment: as above; type: biochemical; details: singlicate; for Residual activity (% of control), CDK4/CycD1: kinase CDK4/CycD1; for Residual activity (% of control), CDK4/CycD1 / Residual activity (% of control), CDK4/CycD2: ATP 3 µM; for Residual activity (% of control), CDK4/CycD2: kinase CDK4/CycD2; for Residual activity (% of control), CDK4/CycD3: kinase CDK4/CycD3, ATP 10 µM
T6 construct: purchased Reaction Biology (assay service)
Protocol: as §1

[8] = target: T7, 350 wild-type kinases (Homo sapiens, UniProt P27037); experiment: as above; type: biochemical; details: kinase ACVR2A, ATP 3 µM, singlicate
T7 construct: purchased Reaction Biology (assay service)
Protocol: as §1

[9] = target: T8, 350 wild-type kinases (Homo sapiens, UniProt P51451); experiment: as above; type: biochemical; details: kinase BLK, ATP 0,3 µM, singlicate
T8 construct: purchased Reaction Biology (assay service)
Protocol: as §1

T4 sequence (Q00534 whole entry): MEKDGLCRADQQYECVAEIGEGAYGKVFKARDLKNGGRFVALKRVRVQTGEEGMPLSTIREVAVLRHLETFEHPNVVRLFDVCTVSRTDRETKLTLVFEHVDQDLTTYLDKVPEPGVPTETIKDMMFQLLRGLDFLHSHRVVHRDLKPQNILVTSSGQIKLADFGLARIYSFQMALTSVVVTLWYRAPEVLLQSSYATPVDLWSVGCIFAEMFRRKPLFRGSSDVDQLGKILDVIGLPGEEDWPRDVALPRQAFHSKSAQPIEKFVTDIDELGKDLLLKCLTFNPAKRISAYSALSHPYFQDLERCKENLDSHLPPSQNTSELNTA
LRRK1, sequence (Q38SD2 whole entry): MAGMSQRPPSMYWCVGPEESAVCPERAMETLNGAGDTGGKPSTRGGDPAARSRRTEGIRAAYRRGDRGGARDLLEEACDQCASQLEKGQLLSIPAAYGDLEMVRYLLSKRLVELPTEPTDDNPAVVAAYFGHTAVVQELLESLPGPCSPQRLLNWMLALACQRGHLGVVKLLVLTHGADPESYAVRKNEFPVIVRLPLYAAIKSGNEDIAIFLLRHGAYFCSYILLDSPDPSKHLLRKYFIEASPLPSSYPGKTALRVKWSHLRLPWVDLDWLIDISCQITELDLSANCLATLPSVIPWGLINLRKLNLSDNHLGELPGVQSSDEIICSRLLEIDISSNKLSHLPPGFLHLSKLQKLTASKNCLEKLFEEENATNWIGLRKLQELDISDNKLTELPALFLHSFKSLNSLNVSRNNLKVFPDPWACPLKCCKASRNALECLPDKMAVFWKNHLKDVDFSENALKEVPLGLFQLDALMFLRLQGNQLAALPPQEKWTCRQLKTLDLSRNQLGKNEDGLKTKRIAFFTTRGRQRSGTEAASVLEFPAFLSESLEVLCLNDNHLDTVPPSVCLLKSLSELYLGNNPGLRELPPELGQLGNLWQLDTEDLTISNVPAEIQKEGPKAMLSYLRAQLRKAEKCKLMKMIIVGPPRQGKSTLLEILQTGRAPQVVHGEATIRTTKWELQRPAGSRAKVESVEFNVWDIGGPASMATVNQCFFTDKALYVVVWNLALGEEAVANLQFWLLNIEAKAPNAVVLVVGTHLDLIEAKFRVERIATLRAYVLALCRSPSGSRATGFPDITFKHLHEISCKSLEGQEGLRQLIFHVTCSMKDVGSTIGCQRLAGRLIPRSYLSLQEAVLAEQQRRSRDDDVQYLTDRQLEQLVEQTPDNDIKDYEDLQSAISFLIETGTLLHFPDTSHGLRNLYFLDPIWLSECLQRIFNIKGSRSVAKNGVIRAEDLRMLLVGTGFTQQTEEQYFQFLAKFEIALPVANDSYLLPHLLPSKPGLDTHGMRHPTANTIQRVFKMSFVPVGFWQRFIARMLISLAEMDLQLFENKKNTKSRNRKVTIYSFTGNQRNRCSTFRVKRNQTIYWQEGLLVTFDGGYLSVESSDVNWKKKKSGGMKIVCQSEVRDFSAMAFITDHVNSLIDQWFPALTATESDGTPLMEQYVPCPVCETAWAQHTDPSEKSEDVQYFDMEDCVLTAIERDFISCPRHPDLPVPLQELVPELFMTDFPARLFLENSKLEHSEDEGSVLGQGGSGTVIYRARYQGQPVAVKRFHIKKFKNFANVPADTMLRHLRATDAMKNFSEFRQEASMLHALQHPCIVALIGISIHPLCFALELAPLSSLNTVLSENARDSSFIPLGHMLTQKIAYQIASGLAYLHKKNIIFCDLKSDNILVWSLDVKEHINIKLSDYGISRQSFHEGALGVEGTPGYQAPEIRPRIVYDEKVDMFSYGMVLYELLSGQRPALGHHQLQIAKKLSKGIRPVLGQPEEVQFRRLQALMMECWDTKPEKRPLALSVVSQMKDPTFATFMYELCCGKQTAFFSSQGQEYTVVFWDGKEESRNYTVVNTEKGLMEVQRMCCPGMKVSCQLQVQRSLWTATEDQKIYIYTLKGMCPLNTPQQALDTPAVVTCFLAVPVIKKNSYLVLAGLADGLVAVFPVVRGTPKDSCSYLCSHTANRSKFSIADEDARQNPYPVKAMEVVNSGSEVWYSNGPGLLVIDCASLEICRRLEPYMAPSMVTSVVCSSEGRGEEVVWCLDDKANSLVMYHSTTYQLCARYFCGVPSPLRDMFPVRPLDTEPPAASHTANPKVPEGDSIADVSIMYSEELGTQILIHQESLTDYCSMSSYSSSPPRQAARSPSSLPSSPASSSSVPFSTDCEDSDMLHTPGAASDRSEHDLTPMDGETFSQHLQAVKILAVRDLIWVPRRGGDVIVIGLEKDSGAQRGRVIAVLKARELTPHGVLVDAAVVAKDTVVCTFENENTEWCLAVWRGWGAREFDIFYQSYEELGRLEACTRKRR
T6 sequence (P11802 whole entry): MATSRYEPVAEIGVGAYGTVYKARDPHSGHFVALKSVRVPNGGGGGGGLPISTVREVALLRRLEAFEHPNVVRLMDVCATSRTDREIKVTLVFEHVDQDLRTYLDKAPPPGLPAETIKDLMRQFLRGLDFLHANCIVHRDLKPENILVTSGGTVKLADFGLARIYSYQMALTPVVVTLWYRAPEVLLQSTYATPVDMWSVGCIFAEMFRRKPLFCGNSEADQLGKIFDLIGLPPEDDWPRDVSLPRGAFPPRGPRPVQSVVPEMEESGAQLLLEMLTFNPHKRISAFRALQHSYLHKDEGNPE
T1 sequence (Q8IWQ3 whole entry): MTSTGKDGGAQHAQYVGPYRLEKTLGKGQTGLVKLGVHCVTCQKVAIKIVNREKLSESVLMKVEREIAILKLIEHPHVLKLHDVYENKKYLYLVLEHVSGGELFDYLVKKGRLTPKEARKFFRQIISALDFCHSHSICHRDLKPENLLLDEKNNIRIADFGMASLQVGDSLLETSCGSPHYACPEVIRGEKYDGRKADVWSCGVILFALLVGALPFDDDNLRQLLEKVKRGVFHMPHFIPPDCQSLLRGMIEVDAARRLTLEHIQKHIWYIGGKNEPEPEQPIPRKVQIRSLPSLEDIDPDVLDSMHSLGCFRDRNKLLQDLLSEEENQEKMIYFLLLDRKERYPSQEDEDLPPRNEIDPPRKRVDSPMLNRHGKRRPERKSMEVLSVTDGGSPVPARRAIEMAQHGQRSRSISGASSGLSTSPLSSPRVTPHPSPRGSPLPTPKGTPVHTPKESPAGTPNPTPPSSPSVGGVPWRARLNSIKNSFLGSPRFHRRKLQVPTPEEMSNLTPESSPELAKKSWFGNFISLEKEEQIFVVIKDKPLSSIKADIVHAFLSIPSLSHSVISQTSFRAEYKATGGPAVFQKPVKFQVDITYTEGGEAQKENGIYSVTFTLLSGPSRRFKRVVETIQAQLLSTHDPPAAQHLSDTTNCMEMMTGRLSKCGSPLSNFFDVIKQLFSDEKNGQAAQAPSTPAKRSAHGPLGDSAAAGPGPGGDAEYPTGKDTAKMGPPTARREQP
T3 sequence (O60285 whole entry): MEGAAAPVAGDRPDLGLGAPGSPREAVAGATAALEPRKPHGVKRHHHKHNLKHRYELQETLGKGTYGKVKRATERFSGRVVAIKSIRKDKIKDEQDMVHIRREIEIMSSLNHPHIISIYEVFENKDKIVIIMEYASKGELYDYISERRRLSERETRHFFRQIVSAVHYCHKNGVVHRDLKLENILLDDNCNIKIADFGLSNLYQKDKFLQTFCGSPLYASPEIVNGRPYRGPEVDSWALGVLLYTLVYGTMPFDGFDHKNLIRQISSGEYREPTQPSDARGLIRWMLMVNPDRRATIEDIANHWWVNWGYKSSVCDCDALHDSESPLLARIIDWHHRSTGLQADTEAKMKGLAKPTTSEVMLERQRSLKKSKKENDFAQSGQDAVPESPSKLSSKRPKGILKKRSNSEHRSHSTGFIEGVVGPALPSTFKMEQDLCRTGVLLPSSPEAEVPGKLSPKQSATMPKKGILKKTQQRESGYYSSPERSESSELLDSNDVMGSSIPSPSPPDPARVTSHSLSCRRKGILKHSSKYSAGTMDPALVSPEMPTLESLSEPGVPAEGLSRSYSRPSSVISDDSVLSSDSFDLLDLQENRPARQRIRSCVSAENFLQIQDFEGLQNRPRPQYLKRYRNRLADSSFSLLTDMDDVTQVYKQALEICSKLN
T7 sequence (P27037 20-513): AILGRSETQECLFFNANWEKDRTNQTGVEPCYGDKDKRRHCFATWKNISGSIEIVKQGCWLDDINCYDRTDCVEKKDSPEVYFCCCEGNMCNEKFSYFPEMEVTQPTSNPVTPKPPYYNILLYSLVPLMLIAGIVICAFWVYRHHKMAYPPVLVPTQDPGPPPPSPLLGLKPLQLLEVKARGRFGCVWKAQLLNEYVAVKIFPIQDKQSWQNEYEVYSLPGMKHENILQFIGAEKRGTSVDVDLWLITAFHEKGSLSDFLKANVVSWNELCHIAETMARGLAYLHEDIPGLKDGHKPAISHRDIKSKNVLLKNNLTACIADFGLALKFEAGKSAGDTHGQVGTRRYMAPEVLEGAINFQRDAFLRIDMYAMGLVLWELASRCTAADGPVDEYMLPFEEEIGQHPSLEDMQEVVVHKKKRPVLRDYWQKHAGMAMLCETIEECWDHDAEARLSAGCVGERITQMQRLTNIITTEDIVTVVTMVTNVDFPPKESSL
T2 sequence (P19784 whole entry): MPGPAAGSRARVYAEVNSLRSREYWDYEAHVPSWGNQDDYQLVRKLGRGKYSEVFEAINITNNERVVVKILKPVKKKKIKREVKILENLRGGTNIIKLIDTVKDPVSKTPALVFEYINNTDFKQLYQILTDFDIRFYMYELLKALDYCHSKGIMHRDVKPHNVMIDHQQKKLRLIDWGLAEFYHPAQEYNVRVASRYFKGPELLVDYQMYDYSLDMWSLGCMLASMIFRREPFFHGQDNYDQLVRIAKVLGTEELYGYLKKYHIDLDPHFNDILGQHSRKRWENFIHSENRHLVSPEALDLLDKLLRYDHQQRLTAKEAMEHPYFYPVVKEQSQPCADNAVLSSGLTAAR

SMILES: Cc1ccc(-n2nc(C(C)(C)C)cc2NC(=O)Nc2cccc(-c3c[nH]c4nc(Cl)nc(N5CCOCC5)c34)c2)cc1 [Compound 30]
- pRab7/Rab7/LRRK1 normalized to DMSO, Mean ([1]; 250 nM): 0.2801
- pRab7/Rab7/LRRK1 normalized to DMSO ([1]; 250 nM, listed as RN277): 0.1952 and 0.2204 and 0.4248
- pRab7/Rab7/LRRK1 normalized to DMSO, Mean ([1]; 500 nM): 0.132
- pRab7/Rab7/LRRK1 normalized to DMSO ([1]; 500 nM, listed as RN277): 0.134 and 0.06831 and 0.1937
- pRab7/Rab7/LRRK1 normalized to DMSO, Mean ([1]; 1 μM): 0.07421
- pRab7/Rab7/LRRK1 normalized to DMSO ([1]; 1 µM, listed as RN277): 0.05675 and 0.07868 and 0.08722
- pRab7/Rab7/LRRK1 normalized to DMSO, Mean ([1]; 5 μM): 0.02826
- pRab7/Rab7/LRRK1 normalized to DMSO ([1]; 5 µM, listed as RN277): 0.01168 and 0.03108 and 0.04201
- inhibition of LRRK1 kinase activity in cells ([1]; listed as RN277): strong inhibitory effect; also recorded: potently inhibited LRRK1 in cells

SMILES: CCSc1nc(NC)c2c(-c3cccc(NC(=O)Nc4cc(C(C)(C)C)nn4-c4ccc(C)cc4)c3)c[nH]c2n1 [Compound 32]
- pRab7/Rab7/LRRK1 normalized to DMSO, Mean ([1]; 250 nM): 0.1265
- pRab7/Rab7/LRRK1 normalized to DMSO ([1]; 250 nM, listed as RN341): 0.09263 and 0.098 and 0.1889
- pRab7/Rab7/LRRK1 normalized to DMSO, Mean ([1]; 500 nM): 0.07673
- pRab7/Rab7/LRRK1 normalized to DMSO ([1]; 500 nM, listed as RN341): 0.0375 and 0.09153 and 0.1011
- pRab7/Rab7/LRRK1 normalized to DMSO, Mean ([1]; 1 μM): 0.0594
- pRab7/Rab7/LRRK1 normalized to DMSO ([1]; 1 µM, listed as RN341): 0.03839 and 0.04963 and 0.09017
- pRab7/Rab7/LRRK1 normalized to DMSO, Mean ([1]; 5 μM): 0.03197
- pRab7/Rab7/LRRK1 normalized to DMSO ([1]; 5 µM, listed as RN341): 0.0003413 and 0.05428 and 0.04127
- inhibition of LRRK1 kinase activity in cells ([1]; listed as RN341): strong inhibitory effect; also recorded: potently inhibited LRRK1 in cells
- Residual activity (% of control), BRSK2 ([2]; Assay Conc. 1.0E-05 M): 84 % of control
- Residual activity (% of control), BRSK2 ([2]; Assay Conc. 1.0E-06 M): 103 % of control
- Residual activity (% of control), CK2alpha2 ([3]; Assay Conc. 1.0E-05 M): 92 % of control
- Residual activity (% of control), CK2alpha2 ([3]; Assay Conc. 1.0E-06 M): 101 % of control
- Residual activity (% of control), ARK5 ([4]; Assay Conc. 1.0E-05 M): 99 % of control
- Residual activity (% of control), ARK5 ([4]; Assay Conc. 1.0E-06 M): 105 % of control
- Residual activity (% of control), CDK6/CycD1 ([5]; Assay Conc. 1.0E-05 M): 74 % of control
- Residual activity (% of control), CDK6/CycD1 ([5]; Assay Conc. 1.0E-06 M): 127 % of control
- Residual activity (% of control), CDK6/CycD2 ([5]; Assay Conc. 1.0E-05 M): 80 % of control
- Residual activity (% of control), CDK6/CycD2 ([5]; Assay Conc. 1.0E-06 M): 109 % of control
- Residual activity (% of control), CDK6/CycD3 ([5]; Assay Conc. 1.0E-05 M): 73 % of control
- Residual activity (% of control), CDK6/CycD3 ([5]; Assay Conc. 1.0E-06 M): 94 % of control
- Residual activity (% of control), CSF1R ([6]; Assay Conc. 1.0E-05 M): 71 % of control
- Residual activity (% of control), CSF1R ([6]; Assay Conc. 1.0E-06 M): 100 % of control
- Residual activity (% of control), CDK4/CycD1 ([7]; Assay Conc. 1.0E-05 M): 57 % of control
- Residual activity (% of control), CDK4/CycD1 ([7]; Assay Conc. 1.0E-06 M): 87 % of control
- Residual activity (% of control), CDK4/CycD2 ([7]; Assay Conc. 1.0E-05 M): 49 % of control
- Residual activity (% of control), CDK4/CycD2 ([7]; Assay Conc. 1.0E-06 M): 111 % of control
- Residual activity (% of control), CDK4/CycD3 ([7]; Assay Conc. 1.0E-05 M): 87 % of control
- Residual activity (% of control), CDK4/CycD3 ([7]; Assay Conc. 1.0E-06 M): 102 % of control
- Residual activity (% of control), ACVR2A ([8]; Assay Conc. 1.0E-05 M): 92 % of control
- Residual activity (% of control), ACVR2A ([8]; Assay Conc. 1.0E-06 M): 102 % of control
- Residual activity (% of control), BLK ([9]; Assay Conc. 1.0E-05 M): 55 % of control
- Residual activity (% of control), BLK ([9]; Assay Conc. 1.0E-06 M): 78 % of control
